Experimental data: patent publication US10986837B2, “Lactam solubility” (Conopco, Inc., priority 2015, dated 2021)

Tests used:
[1] = Lactam solubility in bio-surfactant solutions (48 h agitation, filtration, HPLC); assay type: physicochemical
Method: Bio-surfactant solutions at the levels shown in the results below were prepared for screening. The maximum level tested was dictated by the solubility of the surfactant in water. The following representative example uses 4-(4-chlorophenyl)-5-methylene-pyrrol-2-one.
Solid lactam was weighed into Whatman® Mini Uniprep sample vials, fitted with a 0.45 μm nylon filter (2.7 to 3.3 mg per vial). 50 μL of a solvent solution was placed into each sample vial, the vial capped and shaken briefly by hand to agitate the solid, then placed on a Thermo Labsystems Wellmix® plate shaker and continuously agitated for 48 hours. After this time, the excess solid in the vial was removed using the integral filter membrane and the resultant solution analysed by HPLC to determine the level of dissolved lactam.
Samples were analysed using an Agilent 1200® series HPLC fitted with a Hypersil Gold C18 column (15×2.1×3 μm), using isocratic elution with 60/40 methanol/water (+0.1% Formic Acid) at a flow rate of 0.4 mL/min, using a DAD detector at 285 nm. 4-(4-Chlorophenyl)-5-methylene-pyrrol-2-one has a retention time of ˜2.8 minutes.
Each test surfactant solution was tested in triplicate and the mean value of lactam in solution calculated. Values of solubility were quoted as the improvement in aqueous solubility vs water alone (i.e. mean level of lactam dissolved in water+solvent/mean level of lactam dissolved in water) to allow comparison between screens conducted on different days.

[2] = produced by Rhodococcus erythropolis grown on n-alkane; cited from earlier work
[3] = Additive Di-rhamnolipid R2, 0% in water (water alone)
[4] = Additive Di-rhamnolipid R2, 0.1% in water
[5] = Additive Di-rhamnolipid R2, 0.5% in water
[6] = Additive Di-rhamnolipid R2, 1% in water
[7] = Additive Di-rhamnolipid R2, 2% in water
[8] = Additive Mono-rhamnolipid R1, 0% in water (water alone)
[9] = Additive Mono-rhamnolipid R1, 0.1% in water
[10] = Additive Mono-rhamnolipid R1, 0.5% in water
[11] = Additive Mono-rhamnolipid R1, 1% in water
[12] = Additive Mono-rhamnolipid R1, 2% in water
[13] = Additive Mono-rhamnolipid R1, 4% in water

C=C1NC(=O)C=C1c1ccc(Cl)cc1 [4-(4-chlorophenyl)-5-methylene-pyrrol-2-one]
Mean Lactam Level in Solution [1, 3]: 2.7 ppm | Solubility Increase vs water alone [1, 3]: 1.0 | Mean Lactam Level in Solution [1, 4]: 15.2 ppm | Solubility Increase vs water alone [1, 4]: 5.7 | Mean Lactam Level in Solution [1, 5]: 42.6 ppm | Solubility Increase vs water alone [1, 5]: 15.9 | Mean Lactam Level in Solution [1, 6]: 77.5 ppm | Solubility Increase vs water alone [1, 6]: 28.9 | Mean Lactam Level in Solution [1, 7]: 139.6 ppm | Solubility Increase vs water alone [1, 7]: 52.1 | Mean Lactam Level in Solution [1, 8]: 2.7 ppm | Solubility Increase vs water alone [1, 8]: 1.0 | Mean Lactam Level in Solution [1, 9]: 10.9 ppm | Solubility Increase vs water alone [1, 9]: 4.1 | Mean Lactam Level in Solution [1, 10]: 39.3 ppm | Solubility Increase vs water alone [1, 10]: 14.7 | Mean Lactam Level in Solution [1, 11]: 75.3 ppm | Solubility Increase vs water alone [1, 11]: 28.1 | Mean Lactam Level in Solution [1, 12]: 149.7 ppm | Solubility Increase vs water alone [1, 12]: 55.9 | Mean Lactam Level in Solution [1, 13]: 194.8 ppm | Solubility Increase vs water alone [1, 13]: 72.7

Phosphatidylethanolamine
CMC [2]: 30 mg/L | interfacial tension between water and hexadecane [2]: less than 1 mN m^−1
